The IC50 is the concentration that gives 50% inhibition. Usually inhibition stands for the change of the read-out against control, counted positive when it falls.

The results in this text go back to ChEMBL document CHEMBL5096243, “Selective TASK-1 Inhibitor with a Defined Structure-Activity Relationship Reduces Cancer Cell Proliferation and Viability” (J Med Chem, 2022).

The target of assay [1] is T1, Potassium channel subfamily K member 3 (Homo sapiens, UniProt O14649). The experiment in a line: Inhibition of human TASK-1 expressed in Xenopus laevis oocytes assessed as inhibition of channel current at +40mV holding potential by two-electrode voltage clamp assay. It counts as cell-based, Oocyte. (In general: Two-electrode voltage clamp is typically applied to oocytes expressing channels or transporters.)
Target sequence in this assay (O14649 whole entry): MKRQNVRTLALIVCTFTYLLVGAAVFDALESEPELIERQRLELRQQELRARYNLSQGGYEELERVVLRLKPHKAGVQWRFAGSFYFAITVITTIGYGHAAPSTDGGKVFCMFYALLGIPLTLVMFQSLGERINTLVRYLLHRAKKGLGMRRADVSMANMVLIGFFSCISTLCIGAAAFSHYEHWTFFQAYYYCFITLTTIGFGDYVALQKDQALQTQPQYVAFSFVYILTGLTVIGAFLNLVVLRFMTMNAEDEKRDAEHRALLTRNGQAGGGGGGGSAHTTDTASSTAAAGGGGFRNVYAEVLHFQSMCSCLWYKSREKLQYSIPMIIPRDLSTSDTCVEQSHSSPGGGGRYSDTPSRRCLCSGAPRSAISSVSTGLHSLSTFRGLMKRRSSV

Assay [2] addresses T1, Potassium channel subfamily K member 3. The experiment in a line: Inhibition of human TASK-1 expressed in Xenopus laevis oocytes assessed as inhibition of channel current at 10 uM at +40mV holding potential by two-electrode voltage clamp assay. It counts as cell-based. As to conditions: Oocyte.
Target sequence in this assay (O14649 whole entry, looked up): as the sequence (O14649 whole entry) above
Assay [3] has as its target T2, Potassium channel subfamily K member 9 (Homo sapiens, UniProt Q9NPC2). The assay can be described thus: Inhibition of human TASK-3 expressed in Xenopus laevis oocytes assessed as inhibition of channel current at 10 uM at +40mV holding potential by two-electrode voltage clamp assay. Type of assay: cell-based. The note with it: Oocyte.
For assay [4], the system named is MCF7. The assay can be described thus: Antiproliferative activity against human MCF7 cells with wild type TASK-1 expressing GFP induced by shGFP assessed as inhibition of cell proliferation at 0.148 uM incubated for 24 to 72 hrs by trypan blue exclusion method. It counts as functional, cell-based. The note with it: time 24-72 hrs.
The target of assay [5] is T2, Potassium channel subfamily K member 9. The experiment in a line: Inhibition of human TASK-3 expressed in Xenopus laevis oocytes assessed as inhibition of channel current at +40mV holding potential by two-electrode voltage clamp assay. It counts as cell-based, Oocyte.
Assay [6] relates to MCF7. The assay can be described thus: Antiproliferative activity against human MCF7 cells with shBP3 induced TASK-1 knockdown assessed as inhibition of cell proliferation at 0.148 uM incubated for 24 to 72 hrs by trypan blue exclusion method. Type of assay: functional, cell-based. As to conditions: time 24-72 hrs.
Assay [7] deals with MCF7. The assay can be described thus: Antiproliferative activity against human MCF7 cells assessed as inhibition of cell proliferation at 10 uM incubated for 4 days by MTT assay. Type of assay: functional. Also on record: scale not given: the % may be the effect or the level left. As to conditions: time 4 day.
Assay [8] concerns MCF7. The experiment in a line: Antiproliferative activity against human MCF7 cells with shBP9 induced TASK-3 knockdown assessed as inhibition of cell proliferation at 0.148 uM incubated for 48 to 72 hrs by trypan blue exclusion method. The note with it: time 48-72 hrs. Type of assay: functional, cell-based.

Active and inactive are the calls of the source. The rule behind the calls is not given here.

T2 sequence (Q9NPC2 whole entry): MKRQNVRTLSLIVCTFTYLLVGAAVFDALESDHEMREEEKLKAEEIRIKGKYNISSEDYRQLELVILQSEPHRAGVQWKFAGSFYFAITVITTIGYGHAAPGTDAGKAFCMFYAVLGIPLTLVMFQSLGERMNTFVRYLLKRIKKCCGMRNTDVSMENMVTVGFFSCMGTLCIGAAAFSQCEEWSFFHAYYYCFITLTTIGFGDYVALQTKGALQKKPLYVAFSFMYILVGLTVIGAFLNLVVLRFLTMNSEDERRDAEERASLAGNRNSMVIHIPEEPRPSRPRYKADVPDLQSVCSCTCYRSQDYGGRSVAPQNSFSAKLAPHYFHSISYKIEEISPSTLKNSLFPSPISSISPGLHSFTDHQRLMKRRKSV

Take `O=C(c1cccc(OC(F)(F)F)n1)N1CCN(Cc2c(-c3ccc(Cl)cc3)nc3ccccn23)CC1`: in assay [1], the IC50 amounted to 7600 nM.
The same measure, in the same setting: the same measure for `O=C(c1ccccc1F)N1CCN(Cc2c(-c3ccc(Br)cc3)nc3ccccn23)CC1`: 9500 nM.
`O=C(Nc1cccc(C(=O)Nc2ccc(F)cc2)c1)c1ccccc1`: in assay [2], the inhibition was determined as 25%.
Take `O=C(Nc1cccc(C(=O)Nc2ncccc2O)c1)c1ccccc1`: the inhibition result in assay [2] and in assay [3] was “Active” in each case.
For `CCCS(=O)(=O)Nc1ccccc1C(=O)N[C@H](CC)c1ccc(OC)nc1`, the IC50 in assay [1] amounted to 200 nM.
`O=C(NCc1ccccc1)c1cccc(NC(=O)c2ccccc2)c1`: the inhibition result in assay [2] and in assay [3] was “Active” in each case.
In the case of `CCc1ccccc1NC(=O)c1cccc(NC(=O)c2ccccc2)c1`, the inhibition entry in assay [2] and in assay [3] was “Active” throughout. In addition, the outcome with MCF7 [4], with MCF7 [6] and with MCF7 [8] was Active. Besides, the figures for the 50% inhibitory concentration (IC50) in assay [5] and in assay [1] were 1750 nM and 148 nM, respectively. Besides, in the assay on MCF7 [7], the Activity is recorded as 45%.
`COc1ccc(NC(=O)c2cccc(NC(=O)c3ccccc3)c2)cc1`: in assay [2], the inhibition came to 10%.
For `O=C(Nc1cccc(C(=O)Nc2nccs2)c1)c1ccccc1`, the inhibition result in assay [2] and in assay [3] was “Active” each time. In addition, the figures for the concentration for half-maximal inhibition (IC50) in assay [5] and in assay [1] were 7170 nM and 388 nM, respectively.
